Earlier results as cited in US9993445B1, “Oral solution comprising atomoxetine hydrochloride and methods thereof” (TAHO Pharmaceuticals Ltd., priority 2016, dated 2018).
Counter-ions that a name gives are not always drawn.

Details: room temperature

soluble in water: 27.8 mg/mL
Compound: CNCCC(Oc1ccccc1C)c1ccccc1 (single isomer, unassigned; (-)) [Atomoxetine hydrochloride, (−)-N-methyl-3-phenyl-3 (o-tolyloxy) propylamine]
